{"source": "paper PMC7384330", "about": "(Neuropharmacology, 2018)", "key": {"[1]": {"target": "T1, human oxytocin receptor (OXTR) (Homo sapiens, UniProt P30559)", "T1 sequence (P30559 1-389)": "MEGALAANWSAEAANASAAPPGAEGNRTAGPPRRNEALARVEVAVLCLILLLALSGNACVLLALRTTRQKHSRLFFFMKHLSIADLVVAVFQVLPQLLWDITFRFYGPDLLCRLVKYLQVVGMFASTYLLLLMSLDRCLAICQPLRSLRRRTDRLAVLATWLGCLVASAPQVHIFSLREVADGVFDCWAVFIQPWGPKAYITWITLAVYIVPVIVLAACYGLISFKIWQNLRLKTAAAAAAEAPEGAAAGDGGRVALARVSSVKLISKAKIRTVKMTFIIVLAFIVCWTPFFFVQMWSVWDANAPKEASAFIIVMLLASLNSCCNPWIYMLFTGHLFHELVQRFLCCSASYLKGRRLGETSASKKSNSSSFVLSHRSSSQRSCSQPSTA", "assay": "Fluorescence-based intracellular calcium mobilization assay", "assay_type": "cell-based"}, "[2]": {"target": "T2, OXTR (β-arrestin recruitment) (Homo sapiens, UniProt P30559)", "T2 sequence (P30559 1-389)": "T1 sequence (P30559 1-389)", "assay_type": "cell-based"}, "[3]": {"target": "T2, OXTR (β-arrestin recruitment)", "assay": "PathHunter eXpress β-Arrestin GPCR Kit, enzyme fragment complementation assay", "assay_type": "cell-based"}, "human OXTR": {"target": "T3, human OXTR (Homo sapiens, UniProt P30559)", "T3 sequence (P30559 1-389)": "T1 sequence (P30559 1-389)", "assay": "IP3 accumulation assay", "assay_type": "cell-based"}, "[4]": {"target": "T4, human Avpr1b vasopressin receptor (Homo sapiens, UniProt P47901)", "T4 sequence (P47901 1-424)": "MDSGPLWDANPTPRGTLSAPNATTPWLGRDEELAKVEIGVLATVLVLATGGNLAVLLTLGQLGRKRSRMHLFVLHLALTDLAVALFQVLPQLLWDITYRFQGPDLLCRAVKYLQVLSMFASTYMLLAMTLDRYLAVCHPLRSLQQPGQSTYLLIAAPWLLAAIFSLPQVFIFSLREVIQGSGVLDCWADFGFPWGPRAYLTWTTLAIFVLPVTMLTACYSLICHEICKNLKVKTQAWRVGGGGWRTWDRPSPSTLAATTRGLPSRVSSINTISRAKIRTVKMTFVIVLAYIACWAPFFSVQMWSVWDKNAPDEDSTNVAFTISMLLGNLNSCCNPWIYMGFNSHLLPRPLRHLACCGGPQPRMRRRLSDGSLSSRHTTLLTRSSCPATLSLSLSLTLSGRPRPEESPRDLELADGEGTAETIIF", "assay": "Calcium mobilization assay, CHO-V1b", "assay_type": "cell-based"}, "[5]": {"test_system": "human Avpr1a vasopressin receptor", "assay": "Calcium mobilization assay, CHO-V1a", "assay_type": "cell-based", "conditions": "Supplemental Fig. 1"}, "[6]": {"test_system": "human Avpr2 vasopressin receptor", "assay": "Calcium mobilization assay, CHO-V2", "assay_type": "cell-based", "conditions": "Supplemental Fig. 1"}, "wild-type CHO cells": {"test_system": "wild-type CHO cells", "assay": "Calcium response in wild-type CHO cells", "assay_type": "cell-based", "conditions": "Supplemental Fig. 2"}, "[7]": {"target": "T5, muscarinic acetylcholine receptor M2 (Homo sapiens, UniProt P08172)", "T5 sequence (P08172 1-466)": "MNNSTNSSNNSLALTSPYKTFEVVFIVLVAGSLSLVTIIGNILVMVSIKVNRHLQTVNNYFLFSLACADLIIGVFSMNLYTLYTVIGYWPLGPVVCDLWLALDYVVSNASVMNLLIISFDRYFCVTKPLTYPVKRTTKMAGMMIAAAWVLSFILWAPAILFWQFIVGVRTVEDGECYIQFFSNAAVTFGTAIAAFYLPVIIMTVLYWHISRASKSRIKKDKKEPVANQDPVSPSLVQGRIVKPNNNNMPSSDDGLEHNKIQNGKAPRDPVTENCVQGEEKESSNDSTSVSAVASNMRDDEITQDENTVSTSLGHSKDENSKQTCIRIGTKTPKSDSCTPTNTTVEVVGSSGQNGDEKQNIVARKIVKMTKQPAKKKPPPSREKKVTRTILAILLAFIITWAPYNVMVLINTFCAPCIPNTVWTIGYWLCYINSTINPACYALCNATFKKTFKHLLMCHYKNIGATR", "assay": "NIMH PDSP GPCR receptor binding screen, M2"}, "[8]": {"target": "muscarinic acetylcholine receptor M3 (Homo sapiens, UniProt P20309)", "sequence (P20309 whole entry)": "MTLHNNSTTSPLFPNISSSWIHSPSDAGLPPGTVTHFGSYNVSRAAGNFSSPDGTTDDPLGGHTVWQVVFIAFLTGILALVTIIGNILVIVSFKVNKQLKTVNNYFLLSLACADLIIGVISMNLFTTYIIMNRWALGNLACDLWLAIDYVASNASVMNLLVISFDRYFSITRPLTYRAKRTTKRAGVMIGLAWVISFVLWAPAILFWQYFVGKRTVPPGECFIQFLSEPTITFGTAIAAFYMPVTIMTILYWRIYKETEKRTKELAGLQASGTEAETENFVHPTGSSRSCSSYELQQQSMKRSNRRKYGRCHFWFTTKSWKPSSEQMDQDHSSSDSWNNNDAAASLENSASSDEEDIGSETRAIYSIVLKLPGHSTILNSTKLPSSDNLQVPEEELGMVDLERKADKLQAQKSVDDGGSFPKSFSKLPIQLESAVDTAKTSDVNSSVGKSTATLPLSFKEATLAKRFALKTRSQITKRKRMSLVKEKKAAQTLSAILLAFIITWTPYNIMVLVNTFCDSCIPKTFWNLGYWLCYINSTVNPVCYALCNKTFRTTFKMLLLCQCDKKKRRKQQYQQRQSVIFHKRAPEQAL", "assay": "NIMH PDSP GPCR receptor binding screen, M3"}, "[9]": {"target": "T6, muscarinic acetylcholine receptor M4 (Homo sapiens, UniProt P08173)", "T6 sequence (P08173 1-479)": "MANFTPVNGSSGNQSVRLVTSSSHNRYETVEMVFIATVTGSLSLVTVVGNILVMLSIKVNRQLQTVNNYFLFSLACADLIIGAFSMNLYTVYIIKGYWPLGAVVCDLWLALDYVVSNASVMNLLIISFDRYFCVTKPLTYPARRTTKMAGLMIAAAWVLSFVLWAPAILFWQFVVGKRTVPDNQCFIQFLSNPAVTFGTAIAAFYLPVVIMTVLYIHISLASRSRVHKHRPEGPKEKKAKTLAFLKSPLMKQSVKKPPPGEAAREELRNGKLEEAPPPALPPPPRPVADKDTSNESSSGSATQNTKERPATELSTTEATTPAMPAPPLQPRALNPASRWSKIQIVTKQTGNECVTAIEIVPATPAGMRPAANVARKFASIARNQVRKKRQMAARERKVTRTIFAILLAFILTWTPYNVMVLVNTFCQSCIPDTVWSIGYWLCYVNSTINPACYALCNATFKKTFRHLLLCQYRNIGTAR", "assay": "NIMH PDSP GPCR receptor binding screen, M4"}, "other human receptors": {"test_system": "other human receptors", "assay": "NIMH PDSP GPCR receptor binding screen, other receptors", "conditions": "complete set of GPCRs available through NIMH PDSP"}, "BALB/cByJ mice [10]": {"test_system": "BALB/cByJ mice", "assay": "Three-chamber social choice test after subchronic regimen", "assay_type": "in vivo, mouse", "conditions": "subchronic"}, "BALB/cByJ mice [11]": {"test_system": "BALB/cByJ mice", "assay": "Marble-burying assay, BALB/cByJ", "assay_type": "in vivo, mouse"}, "OXTR [12]": {"test_system": "OXTR", "conditions": "ref Pitt et al., 2004, cited from earlier work"}, "OXTR [13]": {"test_system": "OXTR", "conditions": "ref Pitt et al., 2004, cited from earlier work", "remark": "listed apart in the source"}, "[14]": {"target": "Avpr1a vasopressin receptor", "conditions": "ref Frantz et al., 2010, cited from earlier work"}, "[15]": {"target": "T7, muscarinic acetylcholine receptor M5 (Homo sapiens, UniProt P08912)", "T7 sequence (P08912 1-532)": "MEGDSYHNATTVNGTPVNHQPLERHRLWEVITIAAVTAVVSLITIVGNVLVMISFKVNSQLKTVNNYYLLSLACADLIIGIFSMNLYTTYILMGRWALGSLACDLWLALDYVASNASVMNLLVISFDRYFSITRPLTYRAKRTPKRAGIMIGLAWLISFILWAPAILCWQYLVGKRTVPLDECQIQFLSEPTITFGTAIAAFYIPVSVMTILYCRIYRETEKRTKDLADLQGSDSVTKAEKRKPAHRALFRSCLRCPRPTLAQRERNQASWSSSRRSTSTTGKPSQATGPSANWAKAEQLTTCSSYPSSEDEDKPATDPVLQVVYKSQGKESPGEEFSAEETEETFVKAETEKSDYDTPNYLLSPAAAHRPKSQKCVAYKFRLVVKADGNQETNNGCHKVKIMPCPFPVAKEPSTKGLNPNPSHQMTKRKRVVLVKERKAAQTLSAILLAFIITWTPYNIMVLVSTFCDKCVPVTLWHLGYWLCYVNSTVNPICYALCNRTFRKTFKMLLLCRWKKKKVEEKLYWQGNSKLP", "assay": "NIMH PDSP GPCR receptor binding screen, M5"}, "rodents": {"test_system": "rodents", "conditions": "ref Ring and colleagues 2006, 2010; cited from earlier work"}, "rats": {"test_system": "rats", "conditions": "ref de Wied et al., 1987; cited from earlier work"}}, "note": "Entries after “also recorded” stand apart in the source; their conditions may differ. Like-named read-outs stand apart in the source and are kept apart here."}
{"molecule": "Cc1cc(C(=O)N2Cc3cnn(C)c3Nc3ccccc32)ccc1CNC(=O)N1CCC[C@H]1C(=S)N1CCCN(C)CC1", "note": "[TC-OT-39, (2S)-N-[[4-[(4,10-Dihydro-1-methylpyrazolo[3,4-b][1,5]benzodiazepin-5(1H)-yl)carbonyl]-2-methylphenyl]methyl]-2-[(hexahydro-4-methyl-1H-1,4-diazepin-1-yl)thioxomethyl]-1-pyrrolidinecarboxamide]", "values": [{"measurement": "Efficacy (% OXT Response), FLIPR TETRA Ca2+ Release", "setting": "[1]; Table 1, oxytocin response as 100%", "value": 102, "unit": "%"}, {"measurement": "agonist character at human OXTR", "setting": "[1]; calcium mobilization / Gq signaling", "value": "moderately potent full agonist at the human OXTR; also recorded: efficacy comparable to that of oxytocin for Gq signaling"}, {"measurement": "EC50", "setting": "[2]", "value": "310 ± 260", "unit": "nM"}, {"measurement": "Efficacy (% OXT Response), DiscoveRx β-Arrestin", "setting": "[2]; oxytocin response as 100%", "value": "51 ± 6", "unit": "%"}, {"measurement": "EC50", "setting": "[3]", "value": 480, "unit": "nM"}, {"measurement": "agonist character for β-arrestin recruitment", "setting": "[3]; enzyme fragment complementation assay, CHO cells", "value": "reduced efficacy for β-arrestin recruitment; also recorded: only a partial agonist of β-arrestin recruitment"}, {"measurement": "Efficacy (% OXT Response), DiscoveRx Express β-Arrestin", "setting": "[3]; oxytocin response as 100%, run as single points only", "value": 48, "unit": "%"}, {"measurement": "EC50", "setting": "human OXTR", "value": "890 ± 90", "unit": "nM"}, {"measurement": "Emax", "setting": "human OXTR; read-out: maximum efficacy, IP3 accumulation", "value": "67 ± 4", "unit": "%"}, {"measurement": "EC50", "setting": "[4]", "value": "4300 ± 70", "unit": "nM"}, {"measurement": "efficacy at human Avpr1b", "setting": "[4]; compared to vasopressin", "value": "74 ± 2", "unit": "%"}, {"measurement": "activation of human Avpr1a", "setting": "[5]; CHO-V1a", "value": "did not activate the human Avpr1a"}, {"measurement": "inverse agonism at Avpr1a", "setting": "[5]", "value": "appears to be an inverse agonist at Avpr1a"}, {"measurement": "activation of human Avpr2", "setting": "[6]", "value": "did not activate the human Avpr1a or Avpr2 receptors"}, {"measurement": "response of wild-type CHO cells", "setting": "wild-type CHO cells", "value": "did not induce any response"}, {"measurement": "Ki", "setting": "[7]", "value": "> 1000", "unit": "nM"}, {"measurement": "Ki", "setting": "[8]", "value": "> 1000", "unit": "nM"}, {"measurement": "Ki", "setting": "[9]", "value": "> 1000", "unit": "nM"}, {"measurement": "binding to other human receptors", "setting": "other human receptors", "value": "no significant binding to other human receptors"}, {"measurement": "emergence of sociability at 14 days, TC-OT-39", "setting": "BALB/cByJ mice [10]; 30 and 50 mg/kg IP, 14 days after final injection", "value": "no evidence for the emergence of increased sociability at the 14-day time point"}, {"measurement": "marble burying, BALB/cByJ, 50 mg/kg", "setting": "BALB/cByJ mice [11]; TC-OT-39 50 mg/kg IP, 50 min before test, F(1,14)=6.18, p=0.0261", "value": "comparable decreases in marble burying"}, {"measurement": "sedative-like effects, 75 mg/kg", "setting": "BALB/cByJ mice [11]; TC-OT-39 75 mg/kg IP, acute, not further tested", "value": "overt sedative-like effects"}, {"measurement": "EC50", "setting": "OXTR [12]; read-out: EC50, OXTR gene reporter assay", "value": 33, "unit": "nM"}, {"measurement": "agonist character, OXTR gene reporter assay", "setting": "OXTR [12]", "value": "full agonist"}, {"measurement": "EC50", "setting": "OXTR [13]; read-out: EC50, OXTR IP3 accumulation", "value": 667, "unit": "nM"}, {"measurement": "agonist character, OXTR IP3 accumulation", "setting": "OXTR [13]", "value": "partial agonist"}, {"measurement": "Ki", "setting": "[14]; read-out: KI at Avpr1a, antagonist", "value": 330, "unit": "nM"}, {"measurement": "character at Avpr1a", "setting": "[14]", "value": "antagonist of the Avpr1a vasopressin receptor"}, {"measurement": "Ki", "setting": "[15]", "value": "> 1000", "unit": "nM"}]}
{"molecule": "Cc1cc(C(=O)N2Cc3cnn(C)c3Nc3ccccc32)ccc1CNC(=O)N1CCN(Cc2cc(O)cc(O)c2)CC1", "note": "[WAY-267464]", "values": [{"measurement": "anxiolytic-like effects, rodent assays", "setting": "rodents", "value": "comparable anxiolytic-like effects in rodent assays"}]}
{"molecule": "Asn-Cyt-Pro-Leu-Gly-NH2 [OT(5-9)]", "values": [{"measurement": "sociability, OT(5-9) 1 mg/kg", "setting": "BALB/cByJ mice [10]; 1 mg/kg IP, Supplemental Fig. 4D, E", "value": "failed to reverse social deficits"}, {"measurement": "sociability, OT(5-9) 2.0 mg/kg", "setting": "BALB/cByJ mice [10]; 2.0 mg/kg IP, Supplemental Fig. 5", "value": "failed to reveal prosocial efficacy"}, {"measurement": "digging responses in marble-burying assay, oxytocin metabolites", "setting": "BALB/cByJ mice [11]; acute IP, 50 min before test, Supplemental Fig. 3B, C", "value": "neither OT(4-9) nor OT(5-9) altered digging responses in the marble-burying assay"}, {"measurement": "potency on avoidance learning relative to oxytocin", "setting": "rats", "value": "greater potency than oxytocin itself on specific aspects of avoidance learning in rats"}]}
